Results from a melting point compilation (Tetko et al.; mined from patent text by program, amines drawn as free bases though some values may be those of a salt).

Structure (SMILES) | melting point
COc1cc(Nc2c(C#N)cnc3cc(/C=C/CCN4CCOCC4)c(OC)cc23)c(Cl)cc1Cl | 141 to 143 °C
CC(C)[C@H](NC(=O)OCc1ccccc1)C(=O)NC(Cc1ccccc1)C(O)C(Cc1ccccc1)NC(=O)OC(C)(C)C (stereo not given in full) | 187 to 188 °C
CC(=O)c1cn(C(c2ccccc2)(c2ccccc2)c2ccccc2)cn1 | 158 to 160 °C
Cc1c[nH]c(CCC(=O)O)c1 | 109 to 112 °C
Cc1[nH]c(=S)[nH]c1-c1cc(C(C)(C)C)c(O)c(C(C)(C)C)c1 | 288 to 290 °C
Cc1nc(C)c(Cl)c(NCc2nccc(SCCCCSCc3ccncc3)c2C)n1 | 104 to 106 °C
O=C(NC(=O)c1c(Cl)cccc1Cl)Nc1ccc(Cl)cn1 | 220 to 222 °C
CCCCC1OC(=O)c2cc(N)ccc21 (stereo not given) | 129 to 131 °C
O=C1N(c2ccccc2)c2ccccc2C1(Cc1ccccc1)Cc1ccncc1 (stereo not given) | 127 to 128 °C
O=C1NC(=O)C(Cc2ccc(O)cc2)S1 (stereo not given) | 151 to 152 °C
CC(C)c1cccc(C(C)C)c1NC(=O)CN[C@H](C)c1ccccc1 | 119 to 120 °C
CC(C)N(NC(=O)OC(C)(C)C)C(=O)NCC(F)(F)F | 90 to 94 °C
CC1(C)CC(N=[N+]=[N-])c2cc(C#N)ccc2O1 (stereo not given) | 63 to 64 °C
O=C(Nc1nc2ccccc2c(=O)n1-c1ccccc1)c1ccccc1 | 185 to 188 °C
CCC(COC(C)=O)Nc1c(-c2c(F)cc(F)cc2F)c(Cl)nc2ncnn12 (stereo not given) | 39 to 42 °C
CON=C(C(=O)N[C@@H]1C(=O)N[C@@H]1C(=O)N(C)C)c1csc(NC(=O)CCl)n1 (relative stereo) | 160 to 165 °C
Cc1cn(-c2cc(N)cc(C(F)(F)F)c2)cn1 | 123 to 124 °C
O=C(O)CCCCCCC(O)C(=O)O (stereo not given) | 86 to 92 °C
CCCc1c2c(c(O)c3c(=O)cc(C(=O)O)oc13)C(O)CCC2 (stereo not given) | 245 to 249 °C

Structure (SMILES) | melting point
CC(F)(F)CC(Br)c1ccccc1S(N)(=O)=O (stereo not given) | 104 to 105 °C
OCC1OC(n2cnc3c(NCC4(c5cccc(Cl)c5)CCC4)ncnc32)C(O)C1O (stereo not given) | 92 to 98 °C
CNC(=O)N(N=C(C)C)C(=O)c1ccc(Cl)cc1 | 119 to 123 °C
Fc1ncccc1-c1cscc1Br | 48 to 50 °C
Cc1cccc(-c2c(=O)[nH]c3cc(Cl)c(Cl)cc3[n+]2[O-])c1 | 260 to 262 °C
CC(C)(CO)NS(=O)(=O)c1cccc(Br)c1 | 138 °C
CC(C)CN(Cc1nnc(-c2ncn3c2CN(C)C(=O)c2ccccc2-3)o1)CC(C)C | 138 to 140 °C
N#Cc1c(-c2ccc(Cl)c(Cl)c2)[nH]c(C(F)(F)F)c1Cl | 239 to 241 °C
CCC[C@H]1CC[C@H](CCc2cc(F)c(C#N)c(F)c2)CC1 | 27.3 °C
COc1cc(-n2c(C#N)c3n(c2=O)CCCC3)c(F)cc1Cl | 173 to 175 °C
OCc1cn2c(n1)CN=C(c1ccccc1Cl)c1cc(Cl)ccc1-2 | 174 to 175 °C
Cc1cc2c(-c3cccc(-c4noc(=S)[nH]4)c3)c(CC(=O)Nc3ccc(F)cc3C(F)(F)F)c(=O)oc2cc1Cl | 178 to 180 °C
CC=CCn1c(Nc2cc(C)cc(C)c2)c(CC)c(=O)[nH]c1=O | 190 to 192 °C
CCOC(=O)c1sc(C)nc1O | 104 °C
CCOC(=O)C(=O)c1c(C(=O)OCC)n(C)c2cc(Cl)ccc12 | 94 to 95 °C
CC(O)Cc1cnn(-c2c(Cl)cc(C(F)(F)F)cc2Cl)n1 (stereo not given) | 68 to 69 °C
CCC1(CC)C(=O)N(CC(O)Cc2cc(C(C)C)c(O)c(C(C)C)c2)C(=O)N(CC(O)Cc2cc(C(C)C)c(O)c(C(C)C)c2)C1=O (stereo not given) | 126 to 127 °C
O=C(O)c1ccc(F)c(C(F)(F)F)c1F | 108 to 110 °C
C=CCN(CCC)S(=O)(=O)NC(=O)c1cc(N)c(F)cc1Cl | 104 to 106 °C

Structure (SMILES) | melting point
CCc1cc(CNc2nc3ccccc3o2)c(=O)[nH]c1C | 211 to 213 °C
Cc1cccc(NC(=O)NC2N=C(c3ccccc3F)c3ccccc3N(Cc3nc4ccccc4[nH]3)C2=O)c1 (racemic) | 165 to 167 °C
COc1cc(COc2cc(C=O)n(-c3ccccc3)n2)ccc1OCc1nc(-c2ccco2)oc1C | 103 to 104 °C
CN(c1ccccc1)c1ncnc2c(I)cnn12 | 193 °C
OC(CCn1ccnc1)c1ccc(Br)cc1 (stereo not given) | 104 to 110 °C
COc1ccc(-c2c(N)cnc3ccc(Cl)cc23)c(OC)c1OC | 180 to 181 °C
COC(=O)Nc1c(C(=O)O)ccc(Cl)c1Cl | 155 to 156 °C
CC1=C(C(=O)OC(C)(C)C)C(c2ccc(Cl)cc2)C(C(=O)OC(C)(C)C)=C(C)N1 | 192 °C
O=C(O)C1CC(c2ccco2)=NN1C(=O)CCS (stereo not given) | 121 to 123 °C
CCCCc1ccc(NC=C(C#N)C(=O)OCC)nc1 | 69 to 73 °C
O=C1NC2(CCc3ccccc32)c2ccccc21 (stereo not given) | 205 to 206 °C
O=C(C1CCCN1)N1CCN(c2nc(N3CCCC3)nc(N3CCCC3)n2)CC1 (stereo not given) | 143 °C
CC1OOC2CC1CC(=O)C2C (stereo not given) | 160 °C
CC(C)CC(=O)Nc1cccc(-c2ccnc3c(C(=O)c4ccoc4)cnn23)c1 | 144 to 146 °C
Cc1c[nH]c(=O)n(C(=O)c2ccccc2)c1=O | 178 to 180 °C
COC(=O)C1Cc2c([nH]c3ccccc23)C(c2ccccc2Br)N1 (stereo not given) | 105 to 106 °C
CC(=O)Nc1ccc(C(=O)N2CC2C#N)c(OC(C)=O)c1 (stereo not given) | 118 to 120 °C
O=C1CC(NC(=O)C2CCCN3C(=O)CCC(NC(=O)c4ccccc4)C(=O)N23)C(OC2Cc3ccccc3C2)O1 (stereo not given) | 140 °C

The remaining lines, values ahead:

melting point | Structure (SMILES)
189 to 191 °C | COCc1c(-c2ccccc2)ncc2[nH]c3ccc(OCc4ccccc4)cc3c12
93 to 101 °C | COc1cc2c(cc1Nc1ncc(Cl)c(Nc3ccccc3S(=O)(=O)N(C)C)n1)CCN(C(=O)C(C)(C)N)CC2
177 to 178 °C | O=C1Nc2ccc(-c3cccc(Cl)c3)cc2C(c2ccccc2)O1 (stereo not given)
199 to 200 °C | CCOC(=O)c1cn(-c2ccccn2)c2occc2c1=O
178 to 182 °C | Cc1ccc(Sc2c(N)cc(C(=O)O)cc2S)cc1
110 to 112 °C | COc1cc(Oc2c(Cl)cccc2C(F)(F)F)nc(C(=O)O)c1
> 260 °C | COc1cccc2c1C(=O)c1sc(-c3ccccc3)nc1C2=O
112 to 114 °C | O[C@H]1c2cc(Oc3ccc4ccccc4n3)ccc2OC[C@H]1Oc1cccnc1 (relative stereo)
112 to 114 °C | CC/C(=C\C=C\C(=O)Oc1ccc([N+](=O)[O-])cc1)c1ccc(OC)cc1
217 °C | CCn1nc(C2CC2)c(C(=O)O)c1Cc1ccc(-c2ccccc2S(=O)(=O)NC(=O)c2ccccc2)cc1
216 to 219 °C | Nc1nc(N2CCOCC2)nc2ccccc12
104 to 105 °C | Nc1nc(-c2ccccc2)cc(C2CCN(C(=O)c3ccccc3)CC2)n1
118 to 120 °C | CCNC(=O)Nc1cccc(Oc2nnc([C@@H](C)NS(=O)(=O)c3ccc(Cl)c(Cl)c3)n2CC)c1
259 to 264 °C | C/C(=C(\C#N)C(=S)/N=C/N(C)C)N1CCCN(c2ccc(Cl)cc2)CC1
107 to 108 °C | COc1ccc(C2CCc3ccccc3C2=O)cc1 (stereo not given)
263 to 264 °C | Cc1[nH]c2ncnc(N3CCCc4ccccc43)c2c1C
156 to 157 °C | Cc1oc(-c2ccc(F)cc2)nc1COc1cccc(CN(O)C(N)=O)c1
158 to 159 °C | CN1CCN(c2ccc(F)cc2C=C2CCCN(c3ccc(Cl)cc3)C2=O)CC1
161 to 162 °C | COc1cccc(C(=O)c2[nH]c3cc(Cl)ccc3c2NC(C)=O)c1
135 to 136 °C | CCN1CCN(c2nc(-c3ccc(OCCO)cc3)cc3ccsc23)CC1
59 °C | CCCCCNC(=O)N(C)c1cccc(-c2ccc(C=C(OCC)C(=O)O)cc2OCCCC)c1
129 to 133 °C | COc1ccc2c(c1)C(OC)(c1ccccc1)OC21CCN(Cc2ccccc2)CC1 (stereo not given)

melting point | Structure (SMILES)
158 °C | O=S(=O)(Oc1ccc(-c2cc3ccccc3[nH]2)cc1O)c1ccccc1
62 to 64 °C | CCCc1c(OCCCOc2cc(O)c(-c3ccc(F)cc3)cc2CC)cccc1Oc1cc(F)ccc1C(=O)O
190 to 192 °C | O=C(NCc1cccnc1)c1cnc(N2CCN(CC3CC3)C2=O)s1
173 to 174 °C | CNc1nc2ccccc2c(-c2ccccc2)c1C(=O)N(C)Cc1cc(C(F)(F)F)cc(C(F)(F)F)c1
147 °C | CC(=O)Nc1ccc(N2CCC(N(C)Cc3ccccc3)CC2)cc1
206 °C | CCCCN1CCC(C(=O)O)(S(=O)(=O)c2ccc(OC)cc2)CC1
222 to 224 °C | O=C1C=C(c2ccc(O)cc2)S(=O)(=O)c2ccccc21
228 to 230 °C | COc1ccc2ncc(C#N)c(Nc3cc(O)c(Cl)cc3F)c2c1
64 °C | CC#CCOc1ccc(SC(C(=O)O)c2cccc(Cl)c2)cc1 (stereo not given)
169 to 170 °C | CCn1nnc(NC(=O)C(c2ccccc2)c2ccccc2)n1
240 to 242 °C | COc1cc(CNC(=O)c2nc3scc(COCc4ccc(C(=O)O)cc4)c3c(=O)[nH]2)ccn1
74 to 76 °C | CN1CC(CCCCN2CCN(c3ncccn3)CC2)OC1=O (stereo not given)
145 to 147 °C | O=C(O)c1ccc(Cc2ccccc2)cn1
166 to 167 °C | Cc1noc(NC(=O)N2CCN(c3nc(-c4ccc(F)cc4F)cs3)CC2)c1C
200 °C | O=c1[nH]c2ccc(CCN3CCN(c4cccc5cccnc45)CC3)cc2o1
154 to 156 °C | COc1cc2ccccc2c(C2NCCc3ccccc32)c1O (stereo not given)
110 °C | OCCn1c2ccccc2c2c(N3CCCC3)nc(N3CCCC3)nc21
125 to 127 °C | O=C(O)COc1ccc(SCc2ccc(OCc3ccc(F)cc3C(F)(F)F)cc2)c2c1CCC2
61 to 63 °C | CCCCCCCCCCCCOc1ccc(C(=O)c2ccc(Cl)cc2)c(O)c1
187 to 189 °C | CCOC(=O)c1ccc(OC(=O)c2ccc(C(=O)Oc3ccc(C(=O)OCC)cc3)cc2)cc1
179 to 180 °C | CC(C)S(=O)(=O)c1cc(OCc2ccccc2)c2[nH]nc(N)c2c1
103 to 104 °C | CS(=O)c1ccc(OCc2ccccc2)c(C=O)c1 (stereo not given)
